Measured values as given in ChEMBL document CHEMBL1148056, “Four new dimeric peptide alkaloids, anchinopeptolides B-D, and cycloanchinopeptolide C, congeners of anchinopeptolide A, from the Mediterranean marine sponge Anchinoe tenacior” (J Nat Prod, 1994).

What was measured:
Rattus norvegicus [1] = organism: Rattus norvegicus; test: Displacement of [125I]somatostatin from rat somatostatin receptor at 5 ug/ml
Rattus norvegicus [2] = organism: Rattus norvegicus; test: Displacement of [3H]NPY from rat neuropeptide Y receptor at 5 ug/ml
[3] = target: B2 bradykinin receptor (Homo sapiens) (UniProt P30411); test: Displacement of [3H]bradykinin from human B2 bradykinin receptor expressed in SF21 cells at 5 ug/ml
Chain of B2 bradykinin receptor (Homo sapiens) (P30411 whole entry, looked up): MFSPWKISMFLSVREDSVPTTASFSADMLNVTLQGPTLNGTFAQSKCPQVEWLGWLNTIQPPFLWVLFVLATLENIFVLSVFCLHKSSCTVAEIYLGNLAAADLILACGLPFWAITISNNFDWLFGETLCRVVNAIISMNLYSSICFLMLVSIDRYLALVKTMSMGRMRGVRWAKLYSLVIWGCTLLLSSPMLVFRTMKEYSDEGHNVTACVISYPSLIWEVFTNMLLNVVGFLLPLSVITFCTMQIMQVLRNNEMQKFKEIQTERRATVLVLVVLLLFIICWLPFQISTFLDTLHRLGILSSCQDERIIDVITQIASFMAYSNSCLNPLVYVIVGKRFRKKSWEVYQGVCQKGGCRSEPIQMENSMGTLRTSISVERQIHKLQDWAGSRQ

Activity (Rattus norvegicus [1]) [%] | Activity (Rattus norvegicus [2]) [%] | Activity [3] [%] | SMILES
77 | – | – | N=C(N)NCCC[C@@]1(O)C(=O)N(CC(=O)N/C=C/c2ccc(O)cc2)[C@@](O)(C(=O)NCC(=O)N/C=C/c2ccc(O)cc2)[C@@H]1CCNC(=N)N
62 | 57 | 52 | C[C@H](NC(=O)[C@@]1(O)[C@H](CCNC(=N)N)[C@@](O)(CCCNC(=N)N)C(=O)N1CC(=O)N/C=C/c1ccc(O)cc1)C(=O)N/C=C/c1ccc(O)cc1
35 | 35 | 35 | C[C@H](NC(=O)[C@@]1(O)[C@H](CCNC(=N)N)[C@@](O)(CCCNC(=N)N)C(=O)N1[C@@H](C)C(=O)N/C=C/c1ccc(O)cc1)C(=O)N/C=C/c1ccc(O)cc1
– | 80 | 71 | C[C@@H](C(=O)N/C=C/c1ccc(O)cc1)N1C(=O)[C@](O)(CCCNC(=N)N)[C@@H](CCNC(=N)N)[C@]1(O)C(=O)NCC(=O)N/C=C/c1ccc(O)cc1
